One experiment has as its target Nonstructural protein 1 (Influenza A virus, UniProt Q194T2). Type of experiment: functional, Influenza A virus (A/California/07/2009(H1N1)).
Experiment [1] can be described thus: viability of HCT116 lacking mutant beta-catenin – cell-based, human colon tumor, dose response (AID 1045).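 Note: HCT116 colon tumor cells with beta catenin knocked out; cells exposed to compound for 60 hours.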 Type of experiment: functional.
The subject of a further experiment is INS1. Description: INS-1E survival protection against cytokine death – cell-based, luminescence, retest, dose response (AID 449756).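 Note: cell death triggered by IL-1 beta plus TNF-alpha plus IFN-gamma mixture; protective hits raise ATP signal compared with cytokine alone wells.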 Type of experiment: functional. As to conditions: Rattus norvegicus.
The nature of experiment [2]: cells. It is filed as functional, cell-based.
Experiment [3] in a line: viability loss in CEM21 cells – cell-based, CellTiter-Glo luminescence, cherry-picked, cytotoxicity control for viral fusion inhibitor project, dose response (AID 652042).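 Note: potency for signal decrease meaning cytotoxicity.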 Type of experiment: functional. Background: In ATP-based viability assays light output follows the ATP content of the culture.
Experiment [4] has as its target T1, Mannose-6-phosphate isomerase (Homo sapiens, UniProt P34949).
T1 sequence (P34949 whole entry): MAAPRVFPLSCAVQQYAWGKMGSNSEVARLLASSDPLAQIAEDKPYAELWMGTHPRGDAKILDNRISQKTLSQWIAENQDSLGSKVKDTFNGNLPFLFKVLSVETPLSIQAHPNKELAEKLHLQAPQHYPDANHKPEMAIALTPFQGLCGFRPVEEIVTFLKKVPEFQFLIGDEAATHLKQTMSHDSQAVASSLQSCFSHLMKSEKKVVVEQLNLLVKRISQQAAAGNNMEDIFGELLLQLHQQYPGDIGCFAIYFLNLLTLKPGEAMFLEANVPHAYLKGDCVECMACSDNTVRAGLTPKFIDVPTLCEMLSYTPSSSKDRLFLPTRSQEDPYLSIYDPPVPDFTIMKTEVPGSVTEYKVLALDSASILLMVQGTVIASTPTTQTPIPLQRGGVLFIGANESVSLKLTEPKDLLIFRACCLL
Description: MPI inhibition at elevated mannose 6-phosphate – biochemical, fluorescence intensity, high mannose 6-phosphate, primary screen (AID 1220).

Experiment [5] is described as follows: viability of PTEN-deleted HCT116 cells – cell-based, HCT116 PTEN knockout, dose response (AID 1047).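 Note: HCT116 colon tumor cells with PTEN knocked out; cells exposed to compound for 60 hours before readout; potency for loss of cell viability measured by luminescence.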 It is filed as functional.
Experiment [6] is described as follows: cells. It is filed as functional, cell-based. The source holds these as a separate data set.
Experiment [7] in a line: HIV-1 AD8 envelope cell-cell fusion blockers – cherry-pick, dose response (AID 652062).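 Note: luciferase signal from cell-cell fusion driven by HIV-1 clade B AD8 Env; potency is for inhibitors of fusion seen as a drop in luminescence.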 It is filed as functional, cell-based.
Experiment [8] addresses T2, Aryl hydrocarbon receptor (Homo sapiens, UniProt P35869).
T2 sequence (P35869 whole entry): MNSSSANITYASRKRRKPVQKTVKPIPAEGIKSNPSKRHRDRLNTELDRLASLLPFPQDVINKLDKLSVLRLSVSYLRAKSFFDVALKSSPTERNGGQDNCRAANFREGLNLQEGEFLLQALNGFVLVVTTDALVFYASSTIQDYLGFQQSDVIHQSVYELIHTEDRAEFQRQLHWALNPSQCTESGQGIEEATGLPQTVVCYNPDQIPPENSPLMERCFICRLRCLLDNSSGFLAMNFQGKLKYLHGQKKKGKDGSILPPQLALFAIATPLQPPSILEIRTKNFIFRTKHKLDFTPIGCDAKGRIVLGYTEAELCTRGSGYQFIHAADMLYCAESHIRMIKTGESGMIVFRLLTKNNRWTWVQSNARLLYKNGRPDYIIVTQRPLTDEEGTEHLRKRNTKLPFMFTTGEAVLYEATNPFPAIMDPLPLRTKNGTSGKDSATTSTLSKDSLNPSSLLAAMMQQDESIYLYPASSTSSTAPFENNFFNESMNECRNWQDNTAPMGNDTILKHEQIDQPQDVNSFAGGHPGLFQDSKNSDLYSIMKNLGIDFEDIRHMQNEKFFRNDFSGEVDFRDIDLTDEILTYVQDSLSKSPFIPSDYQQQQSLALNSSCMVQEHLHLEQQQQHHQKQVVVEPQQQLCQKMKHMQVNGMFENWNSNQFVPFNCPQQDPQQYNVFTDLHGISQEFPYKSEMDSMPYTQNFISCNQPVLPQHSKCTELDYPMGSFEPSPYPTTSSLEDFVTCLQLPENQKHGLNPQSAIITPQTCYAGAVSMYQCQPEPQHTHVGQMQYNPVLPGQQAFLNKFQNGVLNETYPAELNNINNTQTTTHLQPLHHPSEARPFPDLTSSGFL
Description: Luminescence-based cell-based high throughput dose response assay for activators of the Aryl Hydrocarbon Receptor (AHR). [Related pubchem assays: 2796 (Primary screen (AHR activators in singlicate)), 2845 (Confirmation screen (AHR activators in triplicate)), 434939 (Counterscreen (PXR activators in triplicate)), 2804 (Summary (AHR activators))]. It is filed as ADME. For orientation: A counterscreen serves to expose hits that act by an unwanted route or on another target.

The subject of experiment [9] is HEK293. The experiment can be described thus: cells. As to conditions: Homo sapiens.
A further experiment addresses Galanin receptor type 2 (Homo sapiens, UniProt O43603). The experiment can be described thus: Dose Response cell-based high-throughput screening assay to identify antagonists of galanin receptor 2 (GALR2). [Related pubchem assays: 828, 866 ]. It is filed as functional.
Experiment [10] relates to HEK293. Description: cells. As to conditions: Homo sapiens. This is another data set of the same source.
A further experiment has as its target NADPH oxidase 1 (Homo sapiens, UniProt Q9Y5S8). Description: Late-stage luminescence-based cell-based dose response assay to identify inhibitors of NADPH oxidase 1 (NOX1): Synthesized analogs 2. Type of experiment: functional.
For experiment [11], the target named is Solute carrier family 12 member 2/member 5 (Homo sapiens, UniProt P55011+Q9H2X9). Description: KCC2 and NKCC1 inhibition by rubidium flux, cell-based, NKCC1 counter-screen (AID 1734). It is filed as functional, HEK293.

The source made the active and inactive calls.

Results on 5 compounds are retold here after ChEMBL document CHEMBL1201862, “PubChem BioAssay data set” (2004).

Sequence of Galanin receptor type 2 (O43603 whole entry): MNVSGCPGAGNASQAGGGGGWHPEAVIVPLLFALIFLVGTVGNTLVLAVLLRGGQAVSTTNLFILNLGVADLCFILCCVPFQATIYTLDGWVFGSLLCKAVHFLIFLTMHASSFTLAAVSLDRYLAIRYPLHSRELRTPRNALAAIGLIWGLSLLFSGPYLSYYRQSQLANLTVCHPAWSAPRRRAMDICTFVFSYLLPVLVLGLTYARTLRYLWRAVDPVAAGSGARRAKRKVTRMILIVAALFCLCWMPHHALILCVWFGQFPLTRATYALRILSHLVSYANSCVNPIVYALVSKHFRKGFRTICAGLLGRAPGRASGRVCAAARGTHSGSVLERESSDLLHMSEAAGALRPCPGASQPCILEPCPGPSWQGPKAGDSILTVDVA
Sequence of NADPH oxidase 1 (Q9Y5S8 whole entry): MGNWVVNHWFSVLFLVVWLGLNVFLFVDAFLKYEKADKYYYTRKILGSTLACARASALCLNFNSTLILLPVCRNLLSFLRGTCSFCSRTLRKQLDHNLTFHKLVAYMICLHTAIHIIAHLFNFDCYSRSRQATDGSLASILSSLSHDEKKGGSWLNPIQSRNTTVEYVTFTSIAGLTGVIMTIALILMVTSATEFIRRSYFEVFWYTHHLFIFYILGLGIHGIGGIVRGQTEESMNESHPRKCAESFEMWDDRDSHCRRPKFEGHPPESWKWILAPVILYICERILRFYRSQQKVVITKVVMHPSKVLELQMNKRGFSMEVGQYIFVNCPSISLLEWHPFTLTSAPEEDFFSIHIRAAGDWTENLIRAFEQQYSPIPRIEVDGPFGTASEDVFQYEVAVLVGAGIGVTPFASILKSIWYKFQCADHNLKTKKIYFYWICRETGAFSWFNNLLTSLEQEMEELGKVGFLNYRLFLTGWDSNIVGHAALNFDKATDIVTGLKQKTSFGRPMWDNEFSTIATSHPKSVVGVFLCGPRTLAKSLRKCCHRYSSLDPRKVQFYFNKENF
Sequence of Nonstructural protein 1 (Q194T2 whole entry): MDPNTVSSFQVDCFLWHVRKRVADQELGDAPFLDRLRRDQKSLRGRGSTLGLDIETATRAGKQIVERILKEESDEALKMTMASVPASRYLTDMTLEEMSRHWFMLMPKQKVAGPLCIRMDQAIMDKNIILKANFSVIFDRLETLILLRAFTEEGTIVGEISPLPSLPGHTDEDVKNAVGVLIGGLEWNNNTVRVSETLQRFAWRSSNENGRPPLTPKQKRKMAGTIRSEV

For `COc1ccccc1N1CCN(Cc2ccc(O)c3ncccc23)CC1`, the IC50 on Nonstructural protein 1 was 5.46 µM (active); in experiment [4] it was 19.2 µM (active). Besides, the EC50 in experiment [1] is 1.95 µM (active); in “cells [2]”, > 350 µM (not active); in experiment [5] it was 2.25 µM (active); in the experiment “cells [6]”, 12.1 µM (active). Moreover, the AC50 with INS1 is 2.27 µM (active); in experiment [3], 3.39 µM (active); in experiment [7] it was 29.6 µM (active).
Take `COc1ccccc1NC(=O)c1ccc2c(c1)nnn2C`: in experiment [8], the EC50 is 0.195 µM (active).
On to `CN(C(S)=NC1CCCCC1)C1(c2ccccc2Cl)CCCCC1=O` (stereo not given), for which the EC50 in the experiment on HEK293 [9] and with HEK293 [10] was > 59.6 µM (inactive) in each case. Further, the IC50 against Galanin receptor type 2 is on record as > 42 µM (not active).
As for `O=C(Nc1c(F)cccc1F)N1c2ccccc2Sc2ccccc21`, the IC50 at NADPH oxidase 1 is 0.636 µM (active).
Consider `O=S(=O)(NCc1ccccc1)c1ccc(Cl)c(S(=O)(=O)NCc2ccccc2)c1`, for which the IC50 in experiment [11] was 9.1 µM (active).

As a reminder, the IC50 is the point on the concentration scale where inhibition reaches its midpoint. As usually defined, the EC50 is the midpoint of the concentration-response curve. The term AC50 denotes the concentration at which the activity in the assay is half-maximal.
